Results: patent US20030171329A1, “Stable compositions comprising tezacitabine” (priority 2002, published 2003)

Tests used:
[1] = human patients with solid tumors, Phase I clinical trials; cited from earlier work
[2] = Effects of pH and storage temperature on stability of FMdC solutions (Example 1, HPLC); type: physicochemical; conditions: for FMdC content: 1 mg/mL
Method: In this example the effects of pH and storage temperature on the stability of tezacitabine (FMdC) solutions was evaluated. FMdC solutions were made up at 1 mg/mL in aqueous sodium phosphate buffers at pH 1, 3, 5, 7 and 9, then filled in sealed glass ampoules and placed at 5°, 25°, and 45° C. FMdC content was assessed at various times using an HPLC method. The column was a PACK ODS column (YMC, Inc, Wilmington, Del.) with a mobile phase of 55/40/5 (v/v/v) 0.086M NaH2PO4 (pH 7)/0.05M 1-pentanesulfonic acid sodium salt/acetonitrile. Detection was by UV at 268 nm. Flow rate was 1.5 mL/min and injection volume was 10 μL.

[3] = tested on: human and rodent tumors; conditions: tumors of lung, colon, breast, prostate, pancreas, leukemias and lymphomas; cited from earlier work
[4] = Stability of tezacitabine in unbuffered aqueous solution; type: physicochemical
[5] = Stability of FMdC at various concentrations in 100 mM sodium phosphate pH 9 (Example 3, HPLC); type: physicochemical
Method: In this study the stability of FMdC at various concentrations in 100 mM sodium phosphate pH 9 was studied. FMdC solutions were made up and pH adjusted to target with sodium hydroxide. Solution samples were placed in stoppered glass vials and stored at the various temperatures. […] Flow rate was 1.0 mL/min. FMdC solution samples were diluted in mobile phase to a nominal FMdC concentration of 80 μg/mL, then injected onto the column in a volume of 10 μL. Detection was by UV at 268 nm.

[6] = FMdC 2 mg/mL, 100 mM sodium phosphate pH 9, 25° C., 0 mon
[7] = FMdC 2 mg/mL, 100 mM sodium phosphate pH 9, 25° C., 6 mon
[8] = FMdC 2 mg/mL, 100 mM sodium phosphate pH 9, 25° C., 9 mon
[9] = FMdC 2 mg/mL, 100 mM sodium phosphate pH 9, 25° C., 20 mon
[10] = FMdC 2 mg/mL, 100 mM sodium phosphate pH 9, 40° C., 0 mon
[11] = FMdC 2 mg/mL, 100 mM sodium phosphate pH 9, 40° C., 3 mon
[12] = FMdC 2 mg/mL, 100 mM sodium phosphate pH 9, 40° C., 6 mon
[13] = FMdC 2 mg/mL, 100 mM sodium phosphate pH 9, 40° C., 9 mon
[14] = FMdC 2 mg/mL, 100 mM sodium phosphate pH 9, 50° C., 0 mon
[15] = FMdC 2 mg/mL, 100 mM sodium phosphate pH 9, 50° C., 0.5 mon
[16] = FMdC 2 mg/mL, 100 mM sodium phosphate pH 9, 50° C., 1.0 mon
[17] = FMdC 2 mg/mL, 100 mM sodium phosphate pH 9, 50° C., 2.0 mon
[18] = FMdC 2 mg/mL, 100 mM sodium phosphate pH 9, 50° C., 3.0 mon
[19] = FMdC 10 mg/mL, 100 mM sodium phosphate pH 9, 25° C., 0 mon
[20] = FMdC 10 mg/mL, 100 mM sodium phosphate pH 9, 25° C., 2.8 mon
[21] = FMdC 10 mg/mL, 100 mM sodium phosphate pH 9, 25° C., 4.0 mon
[22] = FMdC 10 mg/mL, 100 mM sodium phosphate pH 9, 25° C., 6.5 mon
[23] = FMdC 10 mg/mL, 100 mM sodium phosphate pH 9, 25° C., 7.9 mon
[24] = FMdC 10 mg/mL, 100 mM sodium phosphate pH 9, 25° C., 16 mon
[25] = FMdC 10 mg/mL, 100 mM sodium phosphate pH 9, 25° C., 23 mon
[26] = FMdC 10 mg/mL, 100 mM sodium phosphate pH 9, 40° C., 0 mon
[27] = FMdC 10 mg/mL, 100 mM sodium phosphate pH 9, 40° C., 2.0 mon
[28] = FMdC 10 mg/mL, 100 mM sodium phosphate pH 9, 40° C., 3.0 mon
[29] = FMdC 10 mg/mL, 100 mM sodium phosphate pH 9, 40° C., 3.7 mon
[30] = FMdC 10 mg/mL, 100 mM sodium phosphate pH 9, 40° C., 4.1 mon
[31] = FMdC 10 mg/mL, 100 mM sodium phosphate pH 9, 50° C., 0 mon
[32] = FMdC 10 mg/mL, 100 mM sodium phosphate pH 9, 50° C., 0.3 mon
[33] = FMdC 10 mg/mL, 100 mM sodium phosphate pH 9, 50° C., 0.7 mon
[34] = FMdC 10 mg/mL, 100 mM sodium phosphate pH 9, 50° C., 0.9 mon
[35] = FMdC 10 mg/mL, 100 mM sodium phosphate pH 9, 50° C., 1.4 mon
[36] = FMdC 10 mg/mL, 100 mM sodium phosphate pH 9, 50° C., 2.1 mon

FMdC content ([2]; sodium phosphate pH 1, 5° C., 0 days): 100.0 % of initial
FMdC content ([2]; sodium phosphate pH 1, 5° C., 1 day): 93.2 % of initial
FMdC content ([2]; sodium phosphate pH 1, 5° C., 14 days): 70.0 % of initial
FMdC content ([2]; sodium phosphate pH 1, 5° C., 29 days): 47.1 % of initial
FMdC content ([2]; sodium phosphate pH 1, 25° C., 0 days): 100.0 % of initial
FMdC content ([2]; sodium phosphate pH 1, 25° C., 1 day): 45.7 % of initial
FMdC content ([2]; sodium phosphate pH 1, 25° C., 7 days): 4.5 % of initial
FMdC content ([2]; sodium phosphate pH 1, 45° C., 0 days): 100.0 % of initial
FMdC content ([2]; sodium phosphate pH 1, 45° C., 1 day): 3.9 % of initial
FMdC content ([2]; sodium phosphate pH 3, 5° C., 0 days): 100.0 % of initial
FMdC content ([2]; sodium phosphate pH 3, 5° C., 1 day): 89.4 % of initial
FMdC content ([2]; sodium phosphate pH 3, 5° C., 14 days): 73.3 % of initial
FMdC content ([2]; sodium phosphate pH 3, 5° C., 29 days): 51.7 % of initial
FMdC content ([2]; sodium phosphate pH 3, 25° C., 0 days): 100.0 % of initial
FMdC content ([2]; sodium phosphate pH 3, 25° C., 1 day): 50.5 % of initial
FMdC content ([2]; sodium phosphate pH 3, 25° C., 7 days): 4.7 % of initial
FMdC content ([2]; sodium phosphate pH 3, 45° C., 0 days): 100.0 % of initial
FMdC content ([2]; sodium phosphate pH 3, 45° C., 1 day): 4.4 % of initial
FMdC content ([2]; sodium phosphate pH 5, 5° C., 0 days): 100.0 % of initial
FMdC content ([2]; sodium phosphate pH 5, 5° C., 7 days): 95.8 % of initial
FMdC content ([2]; sodium phosphate pH 5, 5° C., 14 days): 98.2 % of initial
FMdC content ([2]; sodium phosphate pH 5, 5° C., 29 days): 93.5 % of initial
FMdC content ([2]; sodium phosphate pH 5, 25° C., 0 days): 100.0 % of initial
FMdC content ([2]; sodium phosphate pH 5, 25° C., 7 days): 73.0 % of initial
FMdC content ([2]; sodium phosphate pH 5, 25° C., 14 days): 56.3 % of initial
FMdC content ([2]; sodium phosphate pH 5, 25° C., 29 days): 28.6 % of initial
FMdC content ([2]; sodium phosphate pH 5, 45° C., 0 days): 100.0 % of initial
FMdC content ([2]; sodium phosphate pH 5, 45° C., 7 days): 2.5 % of initial
FMdC content ([2]; sodium phosphate pH 7, 5° C., 0 days): 100.0 % of initial
FMdC content ([2]; sodium phosphate pH 7, 5° C., 7 days): 100.8 % of initial
FMdC content ([2]; sodium phosphate pH 7, 5° C., 14 days): 100.6 % of initial
FMdC content ([2]; sodium phosphate pH 7, 5° C., 29 days): 99.8 % of initial
FMdC content ([2]; sodium phosphate pH 7, 25° C., 0 days): 100.0 % of initial
FMdC content ([2]; sodium phosphate pH 7, 25° C., 7 days): 100.4 % of initial
FMdC content ([2]; sodium phosphate pH 7, 25° C., 14 days): 99.4 % of initial
FMdC content ([2]; sodium phosphate pH 7, 25° C., 29 days): 98.8 % of initial
FMdC content ([2]; sodium phosphate pH 7, 45° C., 0 days): 100.0 % of initial
FMdC content ([2]; sodium phosphate pH 7, 45° C., 7 days): 96.5 % of initial
FMdC content ([2]; sodium phosphate pH 7, 45° C., 14 days): 92.0 % of initial
FMdC content ([2]; sodium phosphate pH 7, 45° C., 29 days): 82.3 % of initial
FMdC content ([2]; sodium phosphate pH 9, 5° C., 0 days): 100.0 % of initial
FMdC content ([2]; sodium phosphate pH 9, 5° C., 7 days): 100.4 % of initial
FMdC content ([2]; sodium phosphate pH 9, 5° C., 14 days): 100.8 % of initial
FMdC content ([2]; sodium phosphate pH 9, 5° C., 29 days): 100.4 % of initial
FMdC content ([2]; sodium phosphate pH 9, 25° C., 0 days): 100.0 % of initial
FMdC content ([2]; sodium phosphate pH 9, 25° C., 7 days): 100.5 % of initial
FMdC content ([2]; sodium phosphate pH 9, 25° C., 14 days): 99.4 % of initial
FMdC content ([2]; sodium phosphate pH 9, 25° C., 29 days): 100.4 % of initial
FMdC content ([2]; sodium phosphate pH 9, 45° C., 0 days): 100.0 % of initial
FMdC content ([2]; sodium phosphate pH 9, 45° C., 7 days): 100.1 % of initial
FMdC content ([2]; sodium phosphate pH 9, 45° C., 14 days): 98.7 % of initial
FMdC content ([2]; sodium phosphate pH 9, 45° C., 29 days): 96.5 % of initial
stability in words ([2]; low pH (pH 1 and 3), even under refrigeration): very unstable
stability in words ([2]; pH 9, compared with pH 1 to 7): most stable
pH before storage ([4]; 35° C., start): about 7.2
loss of drug (HPLC) ([4]; 35° C., within 4 days): greater than 90%
pH after storage ([4]; 35° C., within 4 days): about 4.3
stability in words ([5]; 25° C., 2 and 10 mg/mL in 100 mM sodium phosphate pH 9): stable for over eighteen months
FMdC [5, 6]: 100.0 % of initial
pH [5, 6]: 9.18
FMdC [5, 7]: 100.0 % of initial
pH [5, 7]: 9.00
FMdC [5, 8]: 100.5 % of initial
pH [5, 8]: 9.03
FMdC [5, 9]: 100.0 % of initial
pH [5, 9]: 9.00
FMdC [5, 10]: 100.0 % of initial
pH [5, 10]: 9.18
FMdC [5, 11]: 97.0 % of initial
pH [5, 11]: 8.89
FMdC [5, 12]: 92.5 % of initial
pH [5, 12]: 8.55
FMdC [5, 13]: 88.4 % of initial
pH [5, 13]: 8.44
FMdC [5, 14]: 100.0 % of initial
pH [5, 14]: 9.18
FMdC [5, 15]: 100.0 % of initial
pH [5, 15]: 8.84
FMdC [5, 16]: 97.4 % of initial
pH [5, 16]: 8.84
FMdC [5, 17]: 88.7 % of initial
pH [5, 17]: 8.39
FMdC [5, 18]: 80.4 % of initial
pH [5, 18]: 8.16
FMdC [5, 19]: 100.0 % of initial
pH [5, 19]: 9.29
FMdC [5, 20]: 98.9 % of initial
pH [5, 20]: 9.25
FMdC [5, 21]: 100.4 % of initial
pH [5, 21]: 9.17
FMdC [5, 22]: 99.3 % of initial
pH [5, 22]: 9.09
FMdC [5, 23]: 98.1 % of initial
pH [5, 23]: 9.06
FMdC [5, 24]: 97.3 % of initial
pH [5, 24]: 8.73
FMdC [5, 25]: 97.1 % of initial
pH [5, 25]: 8.74
FMdC [5, 26]: 100.0 % of initial
pH [5, 26]: 9.29
FMdC [5, 27]: 98.1 % of initial
pH [5, 27]: 8.60
FMdC [5, 28]: 95.8 % of initial
pH [5, 28]: 8.40
FMdC [5, 29]: 96.9 % of initial
pH [5, 29]: 8.19
FMdC [5, 30]: 94.9 % of initial
pH [5, 30]: 8.08
FMdC [5, 31]: 100.0 % of initial
pH [5, 31]: 9.29
FMdC [5, 32]: 99.6 % of initial
pH [5, 32]: 8.75
FMdC [5, 33]: 94.4 % of initial
pH [5, 33]: 8.24
FMdC [5, 34]: 89.5 % of initial
pH [5, 34]: 7.91
FMdC [5, 35]: 82.0 % of initial
pH [5, 35]: 7.52
FMdC [5, 36]: 67.4 % of initial
pH [5, 36]: 7.01
SMILES: Nc1ccn([C@@H]2O[C@H](CO)[C@@H](O)/C2=C\F)c(=O)n1 [FMdC, (E)-2′-deoxy-2′-(fluoromethylene)cytidine]
tolerability [1]: well tolerated
antitumor activity in animal studies [3]: exhibited activity
colour change of solution, indicative of degradation ([4]; room temperature, within five days): changes from colorless to yellow to light brown
